{"source": "patent US9359322B2", "about": "“C-linked glucuronide of N-(4-hydroxybenzyl) retinone, analogs thereof, and methods of using the same to inhibit neoplastic cell growth” (Wisconsin Alumni Research Foundation, priority 2005, dated 2016)", "key": {"CYP26A1 mRNA": {"tested_on": "CYP26A1 mRNA", "experiment": "Induction of CYP26A1 mRNA in liver (Q-PCR)", "type": "in vivo, rat", "details": "at sacrifice, retinoid-fed rats, 2 mmol/kg diet; FIG. 4"}, "RXRγ": {"biological_target": "T1, RXRγ (Homo sapiens, UniProt P48443)", "T1 sequence (P48443 1-463)": "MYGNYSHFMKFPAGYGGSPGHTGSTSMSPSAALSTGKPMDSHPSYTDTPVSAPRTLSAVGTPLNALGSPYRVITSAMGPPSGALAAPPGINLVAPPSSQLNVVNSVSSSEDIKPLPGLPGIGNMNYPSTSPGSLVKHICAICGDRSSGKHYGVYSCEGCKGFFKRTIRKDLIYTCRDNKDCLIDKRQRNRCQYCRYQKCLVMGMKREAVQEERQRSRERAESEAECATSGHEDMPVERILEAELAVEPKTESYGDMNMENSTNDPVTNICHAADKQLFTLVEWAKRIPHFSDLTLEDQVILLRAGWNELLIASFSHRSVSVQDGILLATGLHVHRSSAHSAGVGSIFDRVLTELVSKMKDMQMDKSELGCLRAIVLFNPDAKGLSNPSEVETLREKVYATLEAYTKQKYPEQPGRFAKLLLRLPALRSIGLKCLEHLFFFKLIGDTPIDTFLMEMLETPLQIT", "experiment": "Nuclear retinoid receptor binding assay, competition with [3H]9-cis RA", "details": "4-HBRCG up to 10^−4.5 M; data not shown", "experimental": "(§1) Nuclear Retinoid Receptor Binding Assay. Competition of 3 and 7 and 4-HBRCGlucose with [^3H]-all-trans-RA (4.2-4.6 nM) for binding to RARβ and RARγ and with [^3H]-9-cis RA (1.9 nM) for binding to RXRγ was determined using an in vitro ligand binding assay.^41, 42 [^3H]-all-trans-RA (40.5 Ci/mmole) or [^3H]-9-cis-RA (69.4 Ci/mmole) was added to receptor-containing extracts in the absence and presence of increasing concentrations of competing ligands at 4° C. for 3 hr. A hydroxylapatite (HAP) assay was used to separate ligand bound to receptor from that free in solution, and the radioactivity associated with the HAP pellet was measured by scintillation counting."}, "[1]": {"experiment": "Terminal plasma drug levels (plasma retinoid assay, HPLC)", "type": "in vivo, rat", "details": "day 22 of treatment; 2 mmol/kg diet; ± SEM", "experimental": "(§2) Plasma Retinoid Assay. To 500 μL of plasma was added 150 μL of ethanol containing 0.75 μg of internal standard (N-(4-chlorophenyl) retinamide). After mixing 30 sec., 500 μL of ethyl acetate was added followed by 1 min. of mixing and centrifugation for 5 minutes at 1000 rpm in an IEC CL centrifuge. The ethyl acetate layer was removed and syringe filtered through a 0.45 um filter. The ethyl acetate extraction was repeated two more times. The combined extracts were evaporated and the residue reconstituted in 100 μL of methanol. The methanol extract (20 μL) was analyzed by HPLC on a Beckman Instruments model 127 instrument equipped with a model 166 UV detector. Chromatography was done on a precolumn equipped 250×4.6 mm Bechman Ultrasphere ODS column with an 85% methanol/water mobile phase (both containing 10 mM ammonium acetate) flowing at 1 mL/min. Analysis for both internal standard and retinol was conducted at 350 nm and internal standard recoveries and retinol levels were determined by comparison with standard curves, with adjustment of the retinol level based on recovery. Recoveries of internal standard averaged ca. 78%. […] In the 4-HPR treated group, plasma levels of this retinoid were evaluated simultaneously in the same samples as above. In order to avoid interfering substances, plasma treatment retinoid levels for RA and 4-HBRCG were measured using the above system and a step gradient of 75% methanol for 15 min. followed by 85% methanol for 40 minutes."}, "RARβ": {"biological_target": "T2, RARβ (Homo sapiens, UniProt P10826)", "T2 sequence (P10826 1-455)": "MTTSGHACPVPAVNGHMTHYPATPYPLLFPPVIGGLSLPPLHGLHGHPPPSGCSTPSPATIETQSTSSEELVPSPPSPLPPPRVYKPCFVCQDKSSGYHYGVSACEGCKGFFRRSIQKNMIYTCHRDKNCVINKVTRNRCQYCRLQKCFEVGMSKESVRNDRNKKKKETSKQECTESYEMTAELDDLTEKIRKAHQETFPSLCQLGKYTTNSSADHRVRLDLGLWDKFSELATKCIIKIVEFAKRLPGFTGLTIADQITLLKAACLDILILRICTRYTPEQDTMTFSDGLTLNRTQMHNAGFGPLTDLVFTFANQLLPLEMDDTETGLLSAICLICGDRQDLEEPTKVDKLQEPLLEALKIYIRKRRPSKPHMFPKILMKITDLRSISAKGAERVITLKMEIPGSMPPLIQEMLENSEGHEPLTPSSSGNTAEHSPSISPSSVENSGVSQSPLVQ", "experiment": "Nuclear retinoid receptor binding assay, competition with [3H]all-trans RA", "details": "competition for [3H]atRA; present work", "experimental": "as §1"}, "[2]": {"experiment": "Body weight change during retinoid feeding", "type": "in vivo, rat", "details": "relative to baseline body weight over 22 days; 2 mmol/kg diet", "experimental": "Animal Studies: Mammary tumors were induced by intragastric intubation of 50-day old female Sprague-Dawley rats (Harlan Industries, Indianapolis, Ind.) with a single dose of 15 mg DMBA in 1.0 ml of sesame oil per rat. The rats were then maintained on a powdered Teklad 22/5 rodent chow diet (W) 8640 (Harlan Industries, Indianapolis, Ind.), and allowed food and water ad libitum. Four months later, rats which had developed palpable tumors were randomly assigned to the experimental groups (4 rats/group). The retinoid-treated groups were fed diets supplemented with 2 mmol/kg diet of atRA, 4-HPR, or 4-HBRCG, respectively. The retinoids were added to the diet in a vehicle consisting of 25 ml of ethanol: tricaprylin (1:4 v/v) plus 2% (w/v) of α-tocopherol as previously described.^9 This vehicle was also added to the control diet. The additives were blended into the chow diets using a Hobart food mixer. The diets were fed in stainless steel feeders designed with food hoppers. The food was replaced weekly with freshly prepared diets. Food consumption was determined once weekly, and from that the average daily consumption/rat was estimated. These diets were continuously fed for 22 days. Animals were also weighted weekly and monitored for general health status and signs of possible toxicity due to treatment.\n(§3) Baseline measurement of initial tumor sizes, numbers and rat body weights were determined immediately before commencement of treatments, and final measurements were recorded just prior to sacrifice of the animals. Animals were palpated for tumors twice weekly and tumor diameters were measured weekly by a micrometer caliper. Tumor volumes were calculated using the formula [V= 4/3 πr^3] where r is one-half the mean of the sum of the largest diameter and the axis at right angle to it. All tumors as well as lungs, liver, kidney and femur were excised at the end of the experiment for chemical and histopathological evaluation. Blood samples were also taken from each animal for determination of plasma retinol and triglyceride levels."}, "[3]": {"experiment": "Plasma retinol level (HPLC)", "type": "in vivo, rat", "details": "2 mmol/kg diet", "experimental": "as §3, §2"}, "CYP26B1 mRNA": {"tested_on": "CYP26B1 mRNA", "experiment": "Induction of CYP26B1 mRNA in lung (Q-PCR)", "type": "in vivo, rat", "details": "at sacrifice, retinoid-fed rats, 2 mmol/kg diet; data not shown"}}}
{"smiles": "CC1=C(/C=C/C(C)=C/C=C/C(C)=C/C(=O)Cc2ccc(CC3OC(C(=O)O)C(O)C(O)C3O)cc2)C(C)(C)CCC1", "note": "[4-HBRCG (7), 2,6-Anhydro-7-deoxy-7-[4-(retinoylmethyl)-phenyl]-L-glycero-L-gulo-heptinoic acid]", "values": [{"measurement": "Induction of CYP26A1 mRNA in liver", "setting": "CYP26A1 mRNA", "value": "did not induce these cytochrome p450 mRNAs"}, {"measurement": "Competition for [3H]9-cis RA binding to RXR", "setting": "RXRγ", "value": "almost no competition"}, {"measurement": "Plasma retinoid concentration (terminal plasma drug level)", "setting": "[1]", "value": "0.10 ± 0.01", "unit": "µg/mL"}, {"measurement": "Times less potent than atRA in binding to RARβ", "setting": "RARβ", "value": 300, "unit": "times"}, {"measurement": "% Weight change", "setting": "[2]", "value": "+3%"}, {"measurement": "Effect on blood retinol", "setting": "[3]", "value": "did not produce any significant reduction in blood retinol"}, {"measurement": "Plasma retinol", "setting": "[3]; day 22 of treatment, mean ± SEM", "value": "0.40 ± 0.04", "unit": "µg/mL"}, {"measurement": "Induction of CYP26B1 mRNA in lung", "setting": "CYP26B1 mRNA", "value": "did not induce these cytochrome p450 mRNAs"}]}
